pIC50: −log10 of the molar value. Read-outs that look alike come from different tables or passages of the source. Where only a bound is given, the exact number is not on record here.

For one experiment, the target named is human P2X3 receptor (Homo sapiens (Human), UniProt P56373). Nature of the experiment: Intracellular calcium measurement (FLIPR, Fluo-4) of antagonist activity at human P2X3 receptors. It is filed as cell-based. Conditions: read-out: hP2X3 IC50. The method in brief: (§1)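 Antagonism quantified from peak calcium fluorescence (Fluo-4, FLIPR, 90 sec read) evoked by EC80 α,β-Me-ATP, after a 30 min, 37° C. compound pretreatment in 1% DMSO. Human P2X3- or P2X2/3-expressing cells used; triplicate means fitted for IC50, percent maximal inhibition and Hill coefficient.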

The target in a further experiment is human P2X2/3 receptor (Homo sapiens (Human), UniProt P56373+Q9UBL9). Nature of the experiment: Intracellular calcium measurement (FLIPR, Fluo-4) of antagonist activity at human P2X2/3 receptors. It is filed as cell-based. The note with it: for pIC50: human P2X2/3, FLIPR calcium assay, agonist α,β-Me-ATP, read-out: hP2X2/3 IC50; for IC50: hP2X2/3 IC50 (nM). The method in brief:
as §1
On the technique in general: A change in cytosolic calcium serves as a functional read-out for many receptors and channels.

Setting [1] is: human P2X3, FLIPR calcium assay, agonist α,β-Me-ATP.

Sequence of human P2X3 receptor (P56373 whole entry): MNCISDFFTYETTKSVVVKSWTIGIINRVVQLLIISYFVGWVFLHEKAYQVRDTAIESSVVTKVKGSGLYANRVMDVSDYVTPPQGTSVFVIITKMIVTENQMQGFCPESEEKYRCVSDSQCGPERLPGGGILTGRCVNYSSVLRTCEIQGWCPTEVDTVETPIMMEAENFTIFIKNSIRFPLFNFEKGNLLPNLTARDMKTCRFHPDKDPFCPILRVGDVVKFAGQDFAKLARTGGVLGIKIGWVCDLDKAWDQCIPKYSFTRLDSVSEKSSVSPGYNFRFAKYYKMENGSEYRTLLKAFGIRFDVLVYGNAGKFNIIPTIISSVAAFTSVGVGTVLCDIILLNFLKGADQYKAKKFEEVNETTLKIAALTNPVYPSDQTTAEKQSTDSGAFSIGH
Sequence of human P2X2/3 receptor (P56373 whole entry): as above
Sequence of human P2X2/3 receptor (Q9UBL9 whole entry): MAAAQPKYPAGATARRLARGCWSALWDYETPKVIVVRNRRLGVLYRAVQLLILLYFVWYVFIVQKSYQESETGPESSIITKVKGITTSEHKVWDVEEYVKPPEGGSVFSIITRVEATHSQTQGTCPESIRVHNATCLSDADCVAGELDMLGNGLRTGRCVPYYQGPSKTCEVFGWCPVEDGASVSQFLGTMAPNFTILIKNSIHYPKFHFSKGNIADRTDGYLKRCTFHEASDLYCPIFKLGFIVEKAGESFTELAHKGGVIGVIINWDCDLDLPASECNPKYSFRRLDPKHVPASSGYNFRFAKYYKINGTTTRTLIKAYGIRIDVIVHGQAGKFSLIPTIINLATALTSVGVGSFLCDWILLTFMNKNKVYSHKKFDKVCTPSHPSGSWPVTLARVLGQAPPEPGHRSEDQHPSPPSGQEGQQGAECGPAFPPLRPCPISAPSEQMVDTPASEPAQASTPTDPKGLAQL

Turning to `Cc1cnc([C@@H](C)NC(=O)c2cc(OC[C@@H]3CCOC3)cc(-c3ncc(C)s3)c2)cn1` [Example 74, N-[(1R)-1-(5-Methylpyrazin-2-yl)ethyl]-3-(5-methyl-1,3-thiazol-2-yl)-5-[(3R)-tetrahydrofuran-3-ylmethoxy]benzamide], the pIC50 on human P2X3 receptor (setting [1]) is 7.85; on human P2X2/3 receptor, 5.96.

Consider `Cc1cnc(-c2cc(OCC3(F)CN(C)C3)cc(C(=O)N[C@H](C)c3ccc(C(F)(F)F)nc3)c2)s1` [Example 386, 3-[(3-fluoro-1-methylazetidin-3-yl)methoxy]-5-(5-methyl-1,3-thiazol-2-yl)-N-{(1R)-1-[6-(trifluoromethyl)pyridin-3-yl]ethyl}benzamide], for which the pIC50 on human P2X3 receptor (setting [1]) was 7.62; on human P2X2/3 receptor it was 6.09.

As for `Cc1ccc([C@@H](C)NC(=O)c2cc(OC[C@H]3CCOC3)cc(-c3ncc(Cl)s3)c2)nn1` [Example 316, 3-(5-chloro-1,3-thiazol-2-yl)-N-[(1R)-1-(6-methylpyridazin-3-yl)ethyl]-5-[(3S)-tetrahydrofuran-3-ylmethoxy]benzamide], the results for the pIC50 at human P2X3 receptor and at human P2X2/3 receptor were 7.68 and 6.60, respectively.

With `Cc1cnc(-c2cc(OC[C@H]3CNCCO3)cc(C(=O)N[C@H](C)c3cnc(C(F)(F)F)nc3)c2)s1` [Example 347, 3-(5-Methyl-1,3-thiazol-2-yl)-5-[(2R)-morpholin-2-ylmethoxy]-N-{(1R)-1-[2-(trifluoromethyl)pyrimidin-5-yl]ethyl}benzamide], the results for the pIC50 on human P2X3 receptor (setting [1]) and at human P2X2/3 receptor were 8.05 and 5.82, respectively.

As to `Cc1ccc([C@@H](C)NC(=O)c2cc(OC[C@H]3CCOC3)cc(-c3ncc(C)s3)c2)nn1` [Example 71, N-[(1R)-1-(6-Methylpyridazin-3-yl)ethyl]-3-(5-methyl-1,3-thiazol-2-yl)-5-[(3S)-tetrahydrofuran-3-ylmethoxy]benzamide], the pIC50 was 7.82 at human P2X3 receptor (setting [1]) and 6.50 on human P2X2/3 receptor.

For `Cc1cc(Oc2cc(C(=O)N[C@H](C)c3ccc(C)nn3)cc(-c3ncc(C)s3)c2)ccn1` [Example 100, N-[(1R)-1-(6-Methylpyridazin-3-yl)ethyl]-3-[(2-methylpyridin-4-yl)oxy]-5-(5-methyl-1,3-thiazol-2-yl)benzamide], the results for the pIC50 on human P2X3 receptor (setting [1]) and at human P2X2/3 receptor were 8.22 and 7.80, respectively.

For the compound `Cc1cnc(-c2cc(O[C@H]3C[C@H](N(C)C)C3)cc(C(=O)N[C@H](C)c3cnc(C(F)(F)F)nc3)c2)s1` [Example 165, 3-{[trans-3-(dimethylamino)cyclobutyl]oxy}-5-(5-methyl-1,3-thiazol-2-yl)-N-{(1R)-1-[2-(trifluoromethyl)pyrimidin-5-yl]ethyl}benzamide], the pIC50 at human P2X3 receptor (setting [1]) is 7.09; at human P2X2/3 receptor, 5.72.

As to `Cc1cnc(-c2cc(O[C@@H]3CCOC3)cc(C(=O)NCc3cnc(C(F)(F)F)nc3)c2)s1` [Example 166, 3-(5-methyl-1,3-thiazol-2-yl)-5-[(3R)-tetrahydrofuran-3-yloxy]-N-{[2-(trifluoromethyl)pyrimidin-5-yl]methyl}benzamide], the pIC50 is 7.40 on human P2X3 receptor (setting [1]) and 6.34 on human P2X2/3 receptor.

For the compound `Cc1cnc(-c2cc(OC[C@H]3CN(C)C(=O)CO3)cc(C(=O)N[C@H](C)c3cnc(C(F)(F)F)nc3)c2)s1` [Example 399, 3-{[(2R)-4-methyl-5-oxomorpholin-2-yl]methoxy}-5-(5-methyl-1,3-thiazol-2-yl)-N-{(1R)-1-[2-(trifluoromethyl)pyrimidin-5-yl]ethyl}benzamide], the pIC50 is 7.16 at human P2X3 receptor (setting [1]) and 5.76 on human P2X2/3 receptor.

Consider `Cc1ccc([C@@H](C)NC(=O)c2cc(Oc3nnc(C)s3)cc(-c3ncc(C)s3)c2)nn1` [Example 110, N-[(1R)-1-(6-Methylpyridazin-3-yl)ethyl]-3-[(5-methyl-1,3,4-thiadiazol-2-yl)oxy]-5-(5-methyl-1,3-thiazol-2-yl)benzamide], for which the pIC50 on human P2X3 receptor (setting [1]) was 6.94; on human P2X2/3 receptor it was 5.84.

With `Cc1cnc(-c2cc(O[C@H]3CCOC3)cc(C(=O)NC(C)c3ncc(F)cc3Cl)c2)s1` (stereo partly drawn) [Example 132, N-[1-(3-Chloro-5-fluoropyridin-2-yl)ethyl]-3-(5-methyl-1,3-thiazol-2-yl)-5-[(3S)-tetrahydrofuran-3-yloxy]benzamide], the results for the pIC50 on human P2X3 receptor (setting [1]) and at human P2X2/3 receptor were 7.12 and 5.69, respectively.

For the compound `Cc1ccc([C@@H](C)NC(=O)c2cc(O[C@@H]3CCOC3)cc(-c3ncc(C(C)C)s3)c2)nn1` [Example 246, N-[(1R)-1-(6-methylpyridazin-3-yl)ethyl]-3-[5-(propan-2-yl)-1,3-thiazol-2-yl]-5-[(3R)-tetrahydrofuran-3-yloxy]benzamide], the figures for the pIC50 at human P2X3 receptor (setting [1]) and at human P2X2/3 receptor were 6.58 and 6.01, respectively.

For the compound `Cc1cnc(-c2cc(OC3CC4(CNC4)C3)cc(C(=O)N[C@H](C)c3cnc(C(F)(F)F)nc3)c2)s1` [Example 202, 3-(2-azaspiro[3.3]hept-6-yloxy)-5-(5-methyl-1,3-thiazol-2-yl)-N-{(1R)-1-[2-(trifluoromethyl)pyrimidin-5-yl]ethyl} benzamide], the pIC50 at human P2X3 receptor (setting [1]) was 7.38; on human P2X2/3 receptor, 5.77.

Consider `C[C@@H](NC(=O)c1cc(OC[C@@H]2CCCO2)cc(-c2ncc(C3CCC3)s2)c1)c1ccc(C(F)(F)F)nn1` [Example 300, 3-(5-cyclobutyl-1,3-thiazol-2-yl)-5-[(2S)-tetrahydrofuran-2-ylmethoxy]-N-{(1R)-1-[6-(trifluoromethyl)pyridazin-3-yl]ethyl}benzamide], for which the figures for the pIC50 at human P2X3 receptor (setting [1]) and on human P2X2/3 receptor were 7.11 and 6.09, respectively.

In the case of `CC#CCOc1cc(C(=O)N[C@H](C)c2cnc(C(F)(F)F)nc2)cc(-c2ncc(C)s2)c1` [Example 40, 3-(But-2-yn-1-yloxy)-5-(5-methyl-1,3-thiazol-2-yl)-N-[(1R)-1-[2-(trifluoromethyl)pyrimidin-5-yl]ethyl]benzamide], the values for the pIC50 on human P2X3 receptor (setting [1]) and on human P2X2/3 receptor were 7.80 and 6.42, respectively.

`Cc1cnc(-c2cc(OC[C@H]3CCCO3)cc(C(=O)N[C@H](C)c3cnc(C(F)(F)F)nc3)c2)s1` [Example 63, 3-(5-Methyl-1,3-thiazol-2-yl)-5-[(2R)-tetrahydrofuran-2-ylmethoxy]-N-{(1R)-1-[2-(trifluoromethyl)pyrimidin-5-yl]ethyl}benzamide]: the pIC50 was 8.40 on human P2X3 receptor (setting [1]) and 6.93 on human P2X2/3 receptor.

Consider `Cc1cnc(-c2cc(OCC3CNC3)cc(C(=O)N[C@H](C)c3cnc(C(F)(F)F)nc3)c2)s1` [Example 394, 3-(Azetidin-3-ylmethoxy)-5-(5-methyl-1,3-thiazol-2-yl)-N-{(1R)-1-[2-(trifluoromethyl)pyrimidin-5-yl]ethyl}benzamide], for which the pIC50 on human P2X3 receptor (setting [1]) is 7.09; on human P2X2/3 receptor it was 5.40.

As to `Cc1cnc(-c2cc(OC[C@H]3CCOC3)cc(C(=O)N[C@H](C)c3cnc(C(F)(F)F)nc3)c2)s1` [Example 70, 3-(5-Methyl-1,3-thiazol-2-yl)-5-[(3S)-tetrahydrofuran-3-ylmethoxy]-N-[(1R)-1-[2-(trifluoromethyl)pyrimidin-5-yl]ethyl]benzamide], the pIC50 is 8.52 on human P2X3 receptor (setting [1]) and 7.11 at human P2X2/3 receptor.

For the compound `CCc1cnc(-c2cc(OC[C@H]3CCCO3)cc(C(=O)N[C@H](C)c3cnc(C)cn3)c2)s1` [Example 268, 3-(5-ethyl-1,3-thiazol-2-yl)-N-[(1R)-1-(5-methylpyrazin-2-yl)ethyl]-5-[(2R)-tetrahydrofuran-2-ylmethoxy]benzamide], the results for the pIC50 on human P2X3 receptor and on human P2X2/3 receptor were 7.85 and 6.41, respectively.

On to `Cc1ccc(CNC(=O)c2cc(OC[C@@H]3CCOC3)cc(-c3ncc(C)s3)c2)nn1` [Example 75, N-[(6-Methylpyridazin-3-yl)methyl]-3-(5-methyl-1,3-thiazol-2-yl)-5-[(3R)-tetrahydrofuran-3-ylmethoxy]benzamide], for which the results for the pIC50 at human P2X3 receptor (setting [1]) and on human P2X2/3 receptor were 7.42 and 5.18, respectively.

`CCc1cnc(-c2cc(OC[C@H]3CCOC3)cc(C(=O)N[C@H](C)c3cnc(C(F)(F)F)nc3)c2)s1` [Example 278, 3-(5-ethyl-1,3-thiazol-2-yl)-5-[(3S)-tetrahydrofuran-3-ylmethoxy]-N-{(1R)-1-[2-(trifluoromethyl)pyrimidin-5-yl]ethyl}benzamide]: the pIC50 is 8.70 on human P2X3 receptor (setting [1]) and 7.64 at human P2X2/3 receptor.

As for `CC[C@@H](NC(=O)c1cc(OC2CCOCC2)cc(-c2ncc(C)s2)c1)c1cnc(C(F)(F)F)nc1` [Example 90, 3-(5-Methyl-1,3-thiazol-2-yl)-5-(tetrahydro-2H-pyran-4-yloxy)-N-{(1R)-1-[2-(trifluoromethyl)pyrimidin-5-yl]propyl}benzamide], the pIC50 was 6.95 at human P2X3 receptor (setting [1]) and 6.15 on human P2X2/3 receptor.

The term IC50 denotes the point on the concentration scale where inhibition reaches its midpoint. Take `Cc1cnc(-c2cc(O[C@H]3CN4CCC3CC4)cc(C(=O)N[C@H](C)c3ccc(C(F)(F)F)nc3)c2)s1` [Example 172, 3-[(3R)-1-azabicyclo[2.2.2]oct-3-yloxy]-5-(5-methyl-1,3-thiazol-2-yl)-N-{(1R)-1-[6-(trifluoromethyl)pyridin-3-yl]ethyl}benzamide]: at human P2X3 receptor, the pIC50 was 7.51. For the same compound, the concentration for half-maximal inhibition (IC50) on human P2X2/3 receptor was determined as 2110 nM.

Regarding `Cc1cnc(-c2cc(O[C@@H]3CN4CCC3CC4)cc(C(=O)N[C@H](C)c3cnc(C(F)(F)F)nc3)c2)s1` [Example 192, 3-[(3S)-1-azabicyclo[2.2.2]oct-3-yloxy]-5-(5-methyl-1,3-thiazol-2-yl)-N-{(1R)-1-[2-(trifluoromethyl)pyrimidin-5-yl]ethyl} benzamide], the pIC50 at human P2X3 receptor was 7.92. Further, the IC50 at human P2X2/3 receptor is 910 nM.

Regarding `C#CCOc1cc(C(=O)NCc2ccc(C)nn2)cc(-c2ncc(C)s2)c1` [Example 31, N-[(6-Methylpyridazin-3-yl)methyl]-3-(5-methyl-1,3-thiazol-2-yl)-5-(prop-2-yn-1-yloxy)benzamide], the pIC50 was 6.76 on human P2X3 receptor (setting [1]) and no more than 5.00 at human P2X2/3 receptor.

For the origin of these results see patent US10174016B2 (BAYER AKTIENGESELLSCHAFT, priority 2014, dated 2019).
